15 compounds from ChEMBL document CHEMBL2396517, “Design, synthesis and biological evaluation of novel aminothiazoles as antiviral compounds acting against human rhinovirus” (Bioorg Med Chem Lett, 2013) can be followed below.

Data set [1] is described as follows: Permeability across apical to basolateral side in human Caco2 cells. Format: ADME, cell-based. To be noted: Caco-2, read-out: permeability. A general note: Caco-2 cells form a polarised layer with tight junctions and transporters.
A further data set is described as follows: physchem. The settings on record: buffer, pH 7.4.
A short description of data set [2]: Half life in rat at 5 mg/kg, po and 2 mg/kg, iv. The data set is classed as ADME, organism-based. The settings on record: in vivo.
Data set [3] in a line: Total clearance in rat at 5 mg/kg, po and 2 mg/kg, iv. The data set is classed as ADME, organism-based. The settings on record: in vivo.
Data set [4] can be described thus: (§1) Oral bioavailability in rat at 5 mg/kg. To be noted: in vivo. The data set is classed as ADME, organism-based.
Data set [5] can be described thus: AUC in rat at 5 mg/kg, po and 2 mg/kg, iv. Format: ADME, organism-based. To be noted: plasma.
Data set [6] is described as follows: Cmax in rat at 5 mg/kg, po and 2 mg/kg, iv. The settings on record: in vivo. The data set is classed as ADME, organism-based.
In a further data set the test system is Rattus norvegicus. The description is as §1. Format: ADME, organism-based. To be noted: in vivo.
Data set [7] is described as follows: Cmax in CD1 mouse at 250 mg/kg. The data set is classed as ADME, organism-based. On the set-up: dose 250 mg/kg. To be noted: in vivo.
Data set [8] can be described thus: Cmax in CD1 mouse at 5 mg/kg. The data set is classed as ADME, organism-based. More on the design: dose 5 mg/kg. To be noted: in vivo.
A short description of data set [9]: Total clearance in CD1 mouse at 2 mg/kg, iv. Format: ADME, organism-based. More on the design: dose 2 mg/kg, route intravenous. The settings on record: in vivo.
Data set [10] can be described thus: AUC in CD1 mouse at 5 mg/kg. To be noted: plasma. Format: ADME, organism-based. On the set-up: dose 5 mg/kg.
The nature of data set [11]: AUC in CD1 mouse at 50 mg/kg. The data set is classed as ADME, organism-based. More on the design: dose 50 mg/kg. The settings on record: plasma.
A short description of data set [12]: AUC in CD1 mouse at 250 mg/kg. On the set-up: dose 250 mg/kg. The settings on record: plasma. The data set is classed as ADME, organism-based.
Data set [13] is described as follows: Cmax in CD1 mouse at 50 mg/kg. Format: ADME, organism-based. More on the design: dose 50 mg/kg. To be noted: in vivo.

On to `Nc1ccc(-c2cnc(NC(=O)CN(Cc3ccccc3)C(=O)c3ccncc3)s2)cc1`, for which the Papp A→B in data set [1] was 11.3 ×10⁻⁶ cm/s. For the same compound, in the data set “physchem”, the logD stood at 2.9.

`Nc1ccc(-c2cnc(NC(=O)CN(Cc3ccccc3)C(=O)c3ccncc3)s2)cn1`: the Papp A→B in [1] was 2.3 ×10⁻⁶ cm/s. In “physchem”, this compound displayed a logD of 2.6.

`Cc1nc(NC(=O)CN(Cc2ccccc2)C(=O)c2ccncc2)sc1-c1ccc(N)nc1`: the Papp A→B in data set [1] came out at 2.1 ×10⁻⁶ cm/s. The compound further yielded a logD in the data set “physchem” of 2.8.

Take `Cc1nc(NC(=O)CN2C(=O)OC[C@H]2C(C)C)sc1-c1ccc(N)cc1`: the Papp A→B in [1] was 19 ×10⁻⁶ cm/s. The same compound had a logD in the data set “physchem” of 2.5.

Consider `CC(=O)N1[C@@H](c2ccccc2)CC[C@H]1C(=O)Nc1ncc(-c2ccc(N)cc2)s1`, for which the Papp A→B in data set [1] was determined as 21 ×10⁻⁶ cm/s. In addition, the logD in “physchem” was found to be 3.2.

Regarding `Cc1ccc(C(=O)N(CC(=O)Nc2ncc(-c3ccc(N)cc3)s2)Cc2ccccc2)cn1`, in [1], the Papp A→B worked out at 17 ×10⁻⁶ cm/s.

Take `CO[C@H]1CC[C@@H](C(=O)Nc2nc(C)c(-c3ccc(N)nc3)s2)CC1`: the half-life in [2] was 0.38 h. Also, the clearance in [3] is 70 mL/min/kg. In data set [4], this compound yielded a bioavailability of 77%. Also, in data set [5], the AUC stood at 2.65 µM·h. This compound also yielded a peak concentration (Cmax) in data set [6] of 1.5 µM. Also, in [1], the Papp A→B is 18 ×10⁻⁶ cm/s. For the same compound, the logD in the data set “physchem” stood at 2.8.

On to `Cc1nc(NC(=O)[C@H]2CC[C@@H](C(F)(F)F)CC2)sc1-c1ccc(N)nc1`, for which the Papp A→B in data set [1] was determined as 22 ×10⁻⁶ cm/s. Further, the logD in “physchem” stood at 3.8.

For `Cc1nc(NC(=O)C2(C)CCCCC2)sc1-c1ccc(N)nc1`, in data set [1], the Papp A→B was 20 ×10⁻⁶ cm/s. The compound further gave a logD in the data set “physchem” of 3.8.

Take `Cc1nc(NC(=O)C(C)CC(F)(F)F)sc1-c1ccc(N)nc1` (stereo not given): in data set [2], the half-life was 1.7 h. This compound came in with a clearance in data set [3] of 40 mL/min/kg. The F with Rattus norvegicus came to 160%. In data set [5], the AUC was determined as 9.7 µM·h. This compound also came in with a Cmax in data set [6] of 1.9 µM. In data set [1], the Papp A→B turned out to be 20 ×10⁻⁶ cm/s. The compound also showed a logD in “physchem” of 2.9.

For `Cc1nc(NC(=O)Cc2nc(-c3ccccc3)c(C)o2)sc1-c1ccc(N)nc1`, in [1], the Papp A→B was found to be 26 ×10⁻⁶ cm/s. In the data set “physchem”, this compound showed a logD of 4.

For the compound `Cc1nc(NC(=O)[C@H](C)CC(F)(F)F)sc1-c1ccc(N)nc1`, the values for the Cmax in [7], in data set [8] and in data set [13] were 55 µM, 1.8 µM and 18 µM, respectively. Besides, the Papp A→B in data set [1] turned out to be 44 ×10⁻⁶ cm/s. The clearance in data set [9] amounted to 91 mL/min/kg. Further, the AUC came to 2.7 µM·h in [10], 44 µM·h in data set [11] and 176 µM·h in data set [12]. Further, the logD in the data set “physchem” came to 3.2.

With `Cc1nc(NC(=O)[C@@H](C)CC(F)(F)F)sc1-c1ccc(N)nc1`, the results for the Cmax in [7], in data set [8] and in data set [13] were 26 µM, 2.2 µM and 20 µM, respectively. For the same compound, the Papp A→B in [1] came out at 42 ×10⁻⁶ cm/s. Also, in [9], the clearance is 71 mL/min/kg. Also, the AUC stood at 4 µM·h in data set [10], 38 µM·h in [11] and 12 µM·h in data set [12]. In “physchem”, the logD is 3.2.

Take `Cc1nc(NC(=O)C(C)(C)CC(F)(F)F)sc1-c1ccc(N)nc1`: the highest concentration (Cmax) came out at 59 µM in data set [7], 0.5 µM in data set [8] and 12 µM in data set [13]. For the same compound, the Papp A→B in data set [1] stood at 41 ×10⁻⁶ cm/s. In data set [9], this compound yielded a clearance of 58 mL/min/kg. For the same compound, the area under the curve (AUC) in data set [10] was 208 µM·h; in data set [11], 514 µM·h. In addition, the log distribution coefficient (logD) in the data set “physchem” worked out at 3.4.

In the case of `COc1ccc(-c2c(C)nn3c(NCCN4CCOCC4)cc(C)nc23)cc1OC`, the Cmax turned out to be 52 µM in [7], 1.9 µM in data set [8], 2 µM in [6] and 15 µM in data set [13]. In data set [2], this compound gave a half-life of 2.8 h. Besides, the clearance in data set [3] was 18 mL/min/kg. This compound also displayed a bioavailability in [4] of 91%. Also, the AUC in data set [5] came out at 10 µM·h; in [10] it was 3.6 µM·h; in data set [11], 45 µM·h; in data set [12], 307 µM·h. The Papp A→B in data set [1] is 11 ×10⁻⁶ cm/s. Also, in “physchem”, the logD amounted to 2.7.

Broadly, the logD is lipophilicity at a set pH, counting ionised and neutral species. Lower therefore signals a more hydrophilic compound. A word on the half-life: it is how long it takes for the measured level to halve. A lower half-life goes with rapid decline. Broadly, the bioavailability is dose-corrected exposure relative to a reference, in per cent. Low readings indicate poor availability, high ones good availability. Usually AUC stands for the area under the concentration-time curve, a measure of exposure. Low values mean less exposure, high ones more exposure. The term Cmax denotes the highest concentration seen after dosing.
